Each structure is given as a SMILES string. pEC50: −log10 of the molar value. Bounds are passed on as bounds.

For one experiment, the target named is human GLP-1R (Homo sapiens, UniProt P43220). The experiment is described as follows: GLP-1R Cell Assay 1: cAMP Hunter CHO-K1 GLP1R Gs cell line, HitHunter cAMP assay. It is filed as cell-based. As to conditions: Table 2; cAMP Hunter CHO-K1 GLP1R Gs cells; percent activity normalized to Exendin-4. In short, it runs like this: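 CHO-K1 cells overexpressing wild-type human GLP-1R treated with 3-fold serially diluted compounds for 30-60 min at 37 °C. cAMP measured by EFC competitive luminescent immunoassay; activity normalised to Exendin-4, duplicate runs, EC50 by nonlinear regression.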
human GLP-1R, sequence (P43220 24-463): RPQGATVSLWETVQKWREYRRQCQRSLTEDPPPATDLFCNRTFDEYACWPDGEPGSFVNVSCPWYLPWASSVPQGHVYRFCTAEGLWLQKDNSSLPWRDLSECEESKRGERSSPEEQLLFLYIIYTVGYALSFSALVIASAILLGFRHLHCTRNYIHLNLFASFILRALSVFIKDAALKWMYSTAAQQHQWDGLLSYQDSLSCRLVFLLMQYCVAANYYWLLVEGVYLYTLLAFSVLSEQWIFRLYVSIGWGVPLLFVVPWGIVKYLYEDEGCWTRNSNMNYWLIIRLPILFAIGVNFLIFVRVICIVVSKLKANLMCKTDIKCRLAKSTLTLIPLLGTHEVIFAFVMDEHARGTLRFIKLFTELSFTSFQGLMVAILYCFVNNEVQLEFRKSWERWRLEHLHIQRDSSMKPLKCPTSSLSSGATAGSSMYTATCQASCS
As for `O=C(O)c1ccc2nc(CN3CCN(c4ccc5cn(Cc6ccccc6)nc5n4)CC3)n(C[C@@H]3CCO3)c2c1` [Compound 31, (S)-2-((4-(2-benzyl-2H-pyrazolo[3,4-b]pyridin-6-yl)piperazin-1-yl)methyl)-1-(oxetan-2-ylmethyl)-1H-benzo[d]imidazole-6-carboxylic acid], the pEC50 was < 6.30. The molecule `Cc1cn(C2CCN(Cc3nc4ccc(C(=O)O)cc4n3C[C@@H]3CCO3)CC2)nc1OCc1ccc(C#N)cc1F` [Compound 114] had a pEC50 of 8.29. `N#Cc1ccc(COc2cccc([C@@]34CCN(Cc5nc6ccc(C(=O)O)cc6n5C[C@@H]5CCO5)C[C@@H]3C4)n2)c(F)c1` (single isomer, unassigned) [Compound 9-P1]: the pEC50 was 9.77.

As to `N#Cc1ccc(COc2nn(C3CCN(Cc4nc5ccc(C(=O)O)cc5n4C[C@@H]4CCO4)CC3)cc2CO)c(F)c1` [Compound 136, (S)-2-((4-(3-((4-cyano-2-fluorobenzyl)oxy)-4-(hydroxymethyl)-1H-pyrazol-1-yl)piperidin-1-yl)methyl)-1-(oxetan-2-ylmethyl)-1H-benzo[d]imidazole-6-carboxylic acid], the pEC50 was 6.96. For the molecule `N#Cc1ccc(COc2nn(C3CCN(Cc4nc5ccc(C(=O)O)cc5n4C[C@@H]4CCO4)CC3)cc2Cl)c(F)c1` [Compound 102, (S)-2-((4-(4-chloro-3-((4-cyano-2-fluorobenzyl)oxy)-1H-pyrazol-1-yl)piperidin-1-yl)methyl)-1-(oxetan-2-ylmethyl)-1H-benzo[d]imidazole-6-carboxylic acid], the pEC50 was 8.40. `O=C(O)c1ccc2nc(CN3CCC(n4ccc(OCCc5ccccc5)n4)CC3)n(C[C@@H]3CCO3)c2c1` [Compound 99] had a pEC50 of 5.68. In turn, `O=C(O)c1ccc2nc(CN3CCN(c4cccc(OCc5nc6ccc(Cl)cc6s5)n4)CC3)n(C[C@@H]3CCO3)c2c1` [Compound 113, (S)-2-((4-(6-((6-chlorobenzo[d]thiazol-2-yl)methoxy)pyridin-2-yl)piperazin-1-yl)methyl)-1-(oxetan-2-ylmethyl)-1H-benzo[d]imidazole-6-carboxylic acid] showed a pEC50 of 9.75.

For `N#Cc1ccc2c(c1)CN(c1cccc(N3CCN(Cc4nc5ccc(C(=O)O)cc5n4C[C@@H]4CCO4)CC3)n1)C2` [Compound 57, (S)-2-((4-(6-(5-cyanoisoindolin-2-yl)pyridin-2-yl)piperazin-1-yl)methyl)-1-(oxetan-2-ylmethyl)-1H-benzo[d]imidazole-6-carboxylic acid], the pEC50 is < 6.30. Same read-out and setting: as for `N#Cc1ccc(COc2nn(C3CCN(Cc4nc5ccc(C(=O)O)cc5n4C[C@@H]4CCO4)CC3)cc2C#N)c(F)c1` [Compound 111, (S)-2-((4-(4-cyano-3-((4-cyano-2-fluorobenzyl)oxy)-1H-pyrazol-1-yl)piperidin-1-yl)methyl)-1-(oxetan-2-ylmethyl)-1H-benzo[d]imidazole-6-carboxylic acid], the figure is 7.43; as for `C[C@H]1COC[C@@H](N2CCC(c3cccc(OCc4ccc(C#N)cc4F)n3)CC2)c2nc3ccc(C(=O)O)cc3n21` (single isomer, unassigned) [Compound 8-P2], 7.09; as for `O=C(O)c1ccc2nc(CN3CCC(O)(c4cccc(OCc5ccccc5)n4)CC3)n(C[C@@H]3CCO3)c2c1` [Compound 18, (S)-2-((4-(6-(benzyloxy)pyridin-2-yl)-4-hydroxypiperidin-1-yl)methyl)-1-(oxetan-2-ylmethyl)-1H-benzo[d]imidazole-6-carboxylic acid], < 6.30. Same read-out and setting: for `O=C(O)c1ccc2nc(CN3CCC(n4ccc(COc5ccccc5)n4)CC3)n(C[C@@H]3CCO3)c2c1` [Compound 26-P1, (S)-1-(oxetan-2-ylmethyl)-2-((4-(3-(phenoxymethyl)-1H-pyrazol-1-yl)piperidin-1-yl)methyl)-1H-benzo[d]imidazole-6-carboxylic acid] the value was < 6.30; for `O=C(O)c1ccc2nc(CN3CCN(c4cccc(OCc5nc6ccccc6s5)n4)CC3)n(C[C@@H]3CCO3)c2c1` [Compound 69, (S)-2-((4-(6-(benzo[d]thiazol-2-ylmethoxy)pyridin-2-yl)piperazin-1-yl)methyl)-1-(oxetan-2-ylmethyl)-1H-benzo[d]imidazole-6-carboxylic acid], 9.40. The molecule `CC(C)c1cn(C2CCN(Cc3nc4ccc(C(=O)O)cc4n3C[C@@H]3CCO3)CC2)nc1OCc1ccc(C#N)cc1F` [Compound 118, (S)-2-((4-(3-((4-cyano-2-fluorobenzyl)oxy)-4-isopropyl-1H-pyrazol-1-yl)piperidin-1-yl)methyl)-1-(oxetan-2-ylmethyl)-1H-benzo[d]imidazole-6-carboxylic acid] showed a negative logarithm of the EC50 (pEC50) of 6.73. The same measure, in the same setting: for `Cn1cnc2cc(COc3cccc(N4CCN(Cc5nc6ccc(C(=O)O)cc6n5C[C@@H]5CCO5)CC4)n3)ccc21` [Compound 3, (S)-2-((4-(6-((1-methyl-1H-benzo[d]imidazol-5-yl)methoxy)pyridin-2-yl)piperazin-1-yl)methyl)-1-(oxetan-2-ylmethyl)-1H-benzo[d]imidazole-6-carboxylic acid] the value was 8.04; for `O=C(O)c1ccc2nc(CN3CCN(c4nc(OCc5ccccc5)ns4)CC3)n(C[C@@H]3CCO3)c2c1` [Compound 32, (S)-2-((4-(3-(benzyloxy)-1,2,4-thiadiazol-5-yl)piperazin-1-yl)methyl)-1-(oxetan-2-ylmethyl)-1H-benzo[d]imidazole-6-carboxylic acid], < 6.30. For the molecule `N#Cc1ccc(COc2cccc(C3CCN([C@@H]4CCCn5c4nc4ccc(C(=O)O)cc45)CC3)n2)c(F)c1` [Compound 87, (R)-4-(4-(6-((4-cyano-2-fluorobenzyl)oxy)pyridin-2-yl)piperidin-1-yl)-1,2,3,4-tetrahydrobenzo[4,5]imidazo[1,2-a]pyridine-8-carboxylic acid], the pEC50 was < 6.30.

`C[C@]1(c2cccc(OCc3ccc(C#N)cc3F)n2)CCN(Cc2nc3ccc(C(=O)O)cc3n2C[C@@H]2CCO2)C1` (single isomer, unassigned) [Compound 20-P2]: the pEC50 was 6.78. With `CN1CCC(COc2cccc(N3CCN(Cc4nc5ccc(C(=O)O)cc5n4C[C@@H]4CCO4)CC3)n2)CC1` [Compound 37, (S)-2-((4-(6-((1-methylpiperidin-4-yl)methoxy)pyridin-2-yl)piperazin-1-yl)methyl)-1-(oxetan-2-ylmethyl)-1H-benzo[d]imidazole-6-carboxylic acid], the pEC50 is < 6.30. In turn, `CCn1cncc1Cn1c(CN2CCC(c3cccc(OCc4nc5ccccc5s4)n3)CC2)nc2ccc(C(=O)O)cc21` [Compound 125, 2-((4-(6-(benzo[d]thiazol-2-ylmethoxy)pyridin-2-yl)piperidin-1-yl)methyl)-1-((1-ethyl-1H-imidazol-5-yl)methyl)-1H-benzo[d]imidazole-6-carboxylic acid] gave a pEC50 of 10.48. For `O=C(O)c1ccc2nc(CN3CCC(c4cccc(OCc5ncc(Cl)s5)n4)CC3)n(C[C@@H]3CCO3)c2c1` [Compound 134, (S)-2-((4-(6-((5-chlorothiazol-2-yl)methoxy)pyridin-2-yl)piperidin-1-yl)methyl)-1-(oxetan-2-ylmethyl)-1H-benzo[d]imidazole-6-carboxylic acid], the pEC50 was 9.65. With `C[C@H]1COC[C@H](N2CCC(c3cccc(OCc4ccc(C#N)cc4F)n3)CC2)c2nc3ccc(C(=O)O)cc3n21` (single isomer, unassigned) [Compound 8-P1], the pEC50 is < 6.30. As for `O=C(O)c1ccc2nc(CN3CCN(c4cccc(OCC5CCC6(CC5)COC6)n4)CC3)n(C[C@@H]3CCO3)c2c1` [Compound 46, (S)-2-((4-(6-((2-oxaspiro[3.5]nonan-7-yl)methoxy)pyridin-2-yl)piperazin-1-yl)methyl)-1-(oxetan-2-ylmethyl)-1H-benzo[d]imidazole-6-carboxylic acid], the pEC50 is < 6.30.

As to `O=C(O)c1ccc2nc(CN3CCC(n4ccc(OCc5ccccc5)n4)CC3)n(C[C@@H]3CCO3)c2c1` [Compound 22, (S)-2-((4-(3-(benzyloxy)-1H-pyrazol-1-yl)piperidin-1-yl)methyl)-1-(oxetan-2-ylmethyl)-1H-benzo[d]imidazole-6-carboxylic acid], the pEC50 was 5.43.

Take `N#Cc1ccc2nc(COc3cccc(N4CCN(Cc5nc6ccc(C(=O)O)cc6n5C[C@@H]5CCO5)CC4)n3)sc2c1` [Compound 110, (S)-2-((4-(6-((6-cyanobenzo[d]thiazol-2-yl)methoxy)pyridin-2-yl)piperazin-1-yl)methyl)-1-(oxetan-2-ylmethyl)-1H-benzo[d]imidazole-6-carboxylic acid]: the pEC50 is 9.67. For `CCn1cncc1Cn1c(CN2CCC(c3cccc(N4CCc5cc(C#N)cc(F)c5C4)n3)CC2)nc2ccc(C(=O)O)cc21` [Compound 137, 2-((4-(6-(6-cyano-8-fluoro-3,4-dihydroisoquinolin-2(1H)-yl)pyridin-2-yl)piperidin-1-yl)methyl)-1-((1-ethyl-1H-imidazol-5-yl)methyl)-1H-benzo[d]imidazole-6-carboxylic acid], the pEC50 is 10.29. On to `O=C(O)c1ccc2nc(CN3CCC4(c5cccc(OCc6ccccc6)n5)CC4C3)n(CC3CCO3)c2c1` (centres unmarked) [Compound 10], for which the pEC50 was 7.86.

The same experiment, now with this note: Table 3; cAMP Hunter CHO-K1 GLP1R Gs cells; percent activity normalized to Exendin-4.
`O=C(O)c1ccc2nc(CN3CCN(c4cc5ccccc5c(OCc5ccccc5)n4)CC3)n(C[C@@H]3CCO3)c2c1` [Compound 156, (S)-2-((4-(1-(benzyloxy)isoquinolin-3-yl)piperazin-1-yl)methyl)-1-(oxetan-2-ylmethyl)-1H-benzo[d]imidazole-6-carboxylic acid] showed a pEC50 of 7.06. Take `O=C(O)c1ccc2nc(CN3CCN(c4ccc5c(n4)N(Cc4ccccc4)CCC5)CC3)n(C[C@@H]3CCO3)c2c1` [Compound 153, (S)-2-((4-(8-benzyl-5,6,7,8-tetrahydro-1,8-naphthyridin-2-yl)piperazin-1-yl)methyl)-1-(oxetan-2-ylmethyl)-1H-benzo[d]imidazole-6-carboxylic acid]: the pEC50 was < 6.30.
